According to ChEMBL document CHEMBL5543096 (J Med Chem, 2024):
Calls of active or inactive are those of the source. No cut-off for these calls is given here.

Columns and labels:
Mus musculus [1] = assay: Antidepressant activity in Reserpine-induced depressive C57BL/6J mouse model assessed as decrease in immobility time at 0.3 mg/kg,ip administration measured after 7 days by tail suspension test; assay type: functional, organism-based; conditions: time 7.0 day
Mus musculus [2] = assay: Antidepressant activity in Reserpine-induced depressive C57BL/6J mouse model assessed as decrease in immobility time at 0.3 mg/kg,ip administration measured after 30 mins by tail suspension test; assay type: functional, organism-based
[3] = Toxicity in chronic restraint stress-induced depressive C57BL/6J mouse model assessed as decrease in percentage of spontaneous alternation at 1 mg/kg,ip administration by Y-maze test; assay type: organism-based; conditions: in vivo
Mus musculus [4] = assay: Antidepressant activity in Reserpine-induced depressive C57BL/6J mouse model assessed as decrease in immobility time at 0.3 mg/kg,ip administration measured after 5 days by tail suspension test; assay type: functional, organism-based; conditions: time 5.0 day
[5] = Toxicity in chronic restraint stress-induced depressive C57BL/6J mouse model assessed as decrease in percentage of spontaneous alternation at 2 mg/kg,ip administration by Y-maze test; assay type: organism-based; conditions: in vivo
Mus musculus [6] = assay: Antidepressant activity in chronic restraint stress-induced depressive C57BL/6J mouse model assessed as increase in hippocampal BDNF mRNA expression at 0.3 mg/kg,ip administration measured after 8 hrs by qRT-PCR analysis; assay type: functional, organism-based
Mus musculus [7] = assay: Antidepressant activity in Reserpine-induced depressive C57BL/6J mouse model assessed as decrease in immobility time at 0.3 mg/kg,ip administration measured for 1 to 3 days by tail suspension test; assay type: functional, organism-based; conditions: time 1-3 day
Mus musculus [8] = assay: Antidepressant activity in Reserpine-induced depressive C57BL/6J mouse model assessed as decrease in immobility time at 0.1 to 0.3 mg/kg,ip administration measured after 30 mins by tail suspension test; assay type: functional, organism-based; conditions: dose 0.1-0.3 mg/kg
Mus musculus [9] = assay: Antidepressant activity in Reserpine-induced depressive C57BL/6J mouse model assessed as decrease in immobility time at 0.1 to 1 mg/kg,ip administration measured after 7 days by tail suspension test; assay type: functional, organism-based; conditions: dose 0.1-1 mg/kg, time 7.0 day

SMILES	Activity (Mus musculus [1])	Activity (Mus musculus [2])	other results
CN1[C@@H]2C[C@@H](OC(=O)C(F)(CBr)c3ccccc3)C[C@H]1[C@@H]1O[C@@H]12 (some centres not stated)	inactive	inactive	
C=CCC(F)(CCl)C(=O)O[C@@H]1C[C@@H]2[C@H]3O[C@H]3[C@H](C1)N2C (some centres not stated)	inactive	inactive	
CCCCC(F)(CO)C(=O)O[C@@H]1C[C@@H]2[C@H]3O[C@H]3[C@H](C1)N2C (some centres not stated)	inactive	inactive	
CN1[C@@H]2C[C@@H](OC(=O)C(F)(CO)Cc3ccccc3Br)C[C@H]1[C@@H]1O[C@@H]12 (some centres not stated)	inactive		
CN1[C@@H]2C[C@@H](OC(=O)C(F)(CO)Cc3ccccc3F)C[C@H]1[C@@H]1O[C@@H]12 (some centres not stated)	inactive		
CN1[C@@H]2C[C@@H](OC(=O)C(F)(CO)c3cccc(F)c3)C[C@H]1[C@@H]1O[C@@H]12 (some centres not stated)	inactive	Active	
CN1[C@@H]2C[C@@H](OC(=O)C(F)(CI)c3ccccc3)C[C@H]1[C@@H]1O[C@@H]12 (some centres not stated)	inactive	inactive	
Cc1ccc(S(=O)(=O)OCC(F)(C(=O)O[C@@H]2C[C@@H]3[C@H]4O[C@H]4[C@H](C2)N3C)c2ccccc2)cc1 (some centres not stated)	inactive	inactive	
CN1[C@@H]2C[C@@H](OC(=O)C(F)(CO)CCc3ccccc3)C[C@H]1[C@@H]1O[C@@H]12 (some centres not stated)	inactive	inactive	
CN1[C@@H]2CC[C@H]1C[C@@H](OC(=O)C(F)(CO)c1ccccc1)C2 (some centres not stated)	inactive	inactive	
CN1[C@@H]2C[C@@H](OC(=O)C(F)(CCl)Cc3ccccc3)C[C@H]1[C@@H]1O[C@@H]12 (some centres not stated)	inactive	inactive	
CN1[C@@H]2C[C@@H](OC(=O)[C@H](CO)c3ccccc3)C[C@H]1[C@@H]1O[C@@H]12 [SCOPOLAMINE]	inactive	Active	Activity [3]: Toxic; Activity (Mus musculus [4]): inactive; Activity [5]: Toxic; Activity (Mus musculus [6]): Active; Activity (Mus musculus [7]): Active
CN1[C@@H]2C[C@@H](OC(=O)C(F)(CCl)c3ccccc3)C[C@H]1[C@@H]1O[C@@H]12 (some centres not stated)	inactive	inactive	
CN1[C@@H]2C[C@@H](OC(=O)C(F)(CO)c3ccccc3)C[C@H]1[C@@H]1O[C@@H]12 (some centres not stated)	Active	Active	
CN1[C@@H]2C[C@@H](OC(=O)C(F)(CO)Cc3cccc4ccccc34)C[C@H]1[C@@H]1O[C@@H]12 (some centres not stated)	inactive		
CN1[C@@H]2C[C@@H](OC(=O)C(F)(CO)CCCc3ccccc3)C[C@H]1[C@@H]1O[C@@H]12 (some centres not stated)	inactive	inactive	
Cc1ccc(S(=O)(=O)OCC(F)(Cc2ccccc2)C(=O)O[C@@H]2C[C@@H]3[C@H]4O[C@H]4[C@H](C2)N3C)cc1 (some centres not stated)	inactive	inactive	
CN1[C@@H]2C[C@@H](OC(=O)C(F)(CN=[N+]=[N-])Cc3ccccc3)C[C@H]1[C@@H]1O[C@@H]12 (some centres not stated)	inactive	inactive	
CN1[C@@H]2C[C@@H](OC(=O)C(F)(CBr)Cc3ccccc3)C[C@H]1[C@@H]1O[C@@H]12 (some centres not stated)	inactive	inactive	
CN1[C@@H]2C[C@@H](OC(=O)[C@](F)(CO)c3ccccc3)C[C@H]1[C@@H]1O[C@@H]12			Activity (Mus musculus [8]): Active; Activity (Mus musculus [9]): inactive
CN1[C@@H]2C[C@@H](OC(=O)C(F)(CO)Cc3ccc(C(F)(F)F)cc3)C[C@H]1[C@@H]1O[C@@H]12 (some centres not stated)	inactive		
CN1[C@@H]2C[C@@H](OC(=O)C(F)(CO)c3ccc(F)cc3)C[C@H]1[C@@H]1O[C@@H]12 (some centres not stated)	inactive		
CN1[C@@H]2C[C@@H](OC(=O)C(F)c3ccccc3)C[C@H]1[C@@H]1O[C@@H]12 (some centres not stated)	inactive	inactive	
CN1[C@@H]2C[C@@H](OC(=O)C(F)(CO)Cc3ccccc3)C[C@H]1[C@@H]1O[C@@H]12 (some centres not stated)	inactive	Active	
C=CCC(F)(CO)C(=O)O[C@@H]1C[C@@H]2[C@H]3O[C@H]3[C@H](C1)N2C (some centres not stated)	inactive	inactive	
CCCCC(F)(CCl)C(=O)O[C@@H]1C[C@@H]2[C@H]3O[C@H]3[C@H](C1)N2C (some centres not stated)	inactive	inactive	
